Laboratory results taken from the NIST ThermoML archive (doi:10.1016/j.jct.2006.05.008).

Test: molar heat capacity at constant pressure
Details: 101.33 kPa

CCC[n+]1ccn(C)c1.[Br-] [1-methyl-3-propylimidazolium bromide]
Details	molar heat capacity at constant pressure [J/K/mol]
79.74 K, Crystal, Vacuum adiabatic calorimetry	92.59
79.94 K, Crystal, Vacuum adiabatic calorimetry	92.76
81.02 K, Metastable crystal, Small (less than 1 g) adiabatic calorimetry	99.02
81.27 K, Crystal, Vacuum adiabatic calorimetry	93.84
81.34 K, Glass, Small (less than 1 g) adiabatic calorimetry	99.34
82.19 K, Crystal, Vacuum adiabatic calorimetry	94.55
82.6 K, Crystal, Vacuum adiabatic calorimetry	94.86
83.24 K, Metastable crystal, Small (less than 1 g) adiabatic calorimetry	100.47
83.87 K, Glass, Small (less than 1 g) adiabatic calorimetry	101.14
83.93 K, Crystal, Vacuum adiabatic calorimetry	95.59
84.2 K, Crystal, Vacuum adiabatic calorimetry	95.76
85.27 K, Crystal, Vacuum adiabatic calorimetry	96.54
85.49 K, Metastable crystal, Small (less than 1 g) adiabatic calorimetry	101.89
86.22 K, Crystal, Vacuum adiabatic calorimetry	97.26
86.42 K, Glass, Small (less than 1 g) adiabatic calorimetry	103.04
86.6 K, Crystal, Vacuum adiabatic calorimetry	97.57
87.75 K, Metastable crystal, Small (less than 1 g) adiabatic calorimetry	103.44
87.94 K, Crystal, Vacuum adiabatic calorimetry	98.49
88.23 K, Crystal, Vacuum adiabatic calorimetry	98.81
89 K, Glass, Small (less than 1 g) adiabatic calorimetry	105.01
89.27 K, Crystal, Vacuum adiabatic calorimetry	99.53
90.04 K, Metastable crystal, Small (less than 1 g) adiabatic calorimetry	104.98
90.61 K, Crystal, Vacuum adiabatic calorimetry	100.47
91.6 K, Glass, Small (less than 1 g) adiabatic calorimetry	106.89
91.95 K, Crystal, Vacuum adiabatic calorimetry	101.38
92.27 K, Crystal, Vacuum adiabatic calorimetry	101.66
92.34 K, Metastable crystal, Small (less than 1 g) adiabatic calorimetry	106.48
93.29 K, Crystal, Vacuum adiabatic calorimetry	102.41
94.22 K, Glass, Small (less than 1 g) adiabatic calorimetry	108.72
94.29 K, Crystal, Vacuum adiabatic calorimetry	103.09
94.64 K, Crystal, Vacuum adiabatic calorimetry	103.36
94.66 K, Metastable crystal, Small (less than 1 g) adiabatic calorimetry	107.94
95.98 K, Crystal, Vacuum adiabatic calorimetry	104.28
96.31 K, Crystal, Vacuum adiabatic calorimetry	104.51
96.86 K, Glass, Small (less than 1 g) adiabatic calorimetry	110.58
97 K, Metastable crystal, Small (less than 1 g) adiabatic calorimetry	109.41
97.33 K, Crystal, Vacuum adiabatic calorimetry	105.24
98.33 K, Crystal, Vacuum adiabatic calorimetry	105.88
98.67 K, Crystal, Vacuum adiabatic calorimetry	106.05
99.35 K, Metastable crystal, Small (less than 1 g) adiabatic calorimetry	110.84
99.51 K, Glass, Small (less than 1 g) adiabatic calorimetry	112.37
100.03 K, Crystal, Vacuum adiabatic calorimetry	106.92
100.36 K, Crystal, Vacuum adiabatic calorimetry	107.18
101.38 K, Crystal, Vacuum adiabatic calorimetry	107.81
101.71 K, Metastable crystal, Small (less than 1 g) adiabatic calorimetry	112.27
102.18 K, Glass, Small (less than 1 g) adiabatic calorimetry	114.14
102.39 K, Crystal, Vacuum adiabatic calorimetry	108.44
102.74 K, Crystal, Vacuum adiabatic calorimetry	108.69
104.09 K, Crystal, Vacuum adiabatic calorimetry	109.46
104.09 K, Metastable crystal, Small (less than 1 g) adiabatic calorimetry	113.67
104.42 K, Crystal, Vacuum adiabatic calorimetry	109.77
104.87 K, Glass, Small (less than 1 g) adiabatic calorimetry	115.91
105.45 K, Crystal, Vacuum adiabatic calorimetry	110.36
106.45 K, Crystal, Vacuum adiabatic calorimetry	111.06
106.47 K, Metastable crystal, Small (less than 1 g) adiabatic calorimetry	115.09
106.81 K, Crystal, Vacuum adiabatic calorimetry	111.31
107.56 K, Glass, Small (less than 1 g) adiabatic calorimetry	117.68
108.17 K, Crystal, Vacuum adiabatic calorimetry	112.14
108.48 K, Crystal, Vacuum adiabatic calorimetry	112.42
108.88 K, Metastable crystal, Small (less than 1 g) adiabatic calorimetry	116.5
109.53 K, Crystal, Vacuum adiabatic calorimetry	112.92
110.28 K, Glass, Small (less than 1 g) adiabatic calorimetry	119.33
110.52 K, Crystal, Vacuum adiabatic calorimetry	113.6
110.89 K, Crystal, Vacuum adiabatic calorimetry	113.71
111.29 K, Metastable crystal, Small (less than 1 g) adiabatic calorimetry	117.82
112.25 K, Crystal, Vacuum adiabatic calorimetry	114.5
112.57 K, Crystal, Vacuum adiabatic calorimetry	114.76
